This note sets out measurements from PubChem BioAssay AID1996.

The structures appear in SMILES notation. ≈ marks a conversion by molar mass, not a printed value.

For the series the following is noted: buffer; pH 7.4; 200.0 µM.
What is called solubility (kinetic) is the concentration staying in solution when a stock, usually in DMSO, is diluted into the medium. Consider `O=C(c1ccccc1)N1CCN(c2ncccn2)CC1`, for which the kinetic solubility is over 40.2 µg/mL.

On to `Cc1cc(Cl)ccc1C(=O)C1CCCN(C(=O)c2ccoc2)C1` (stereo unspecified), for which the solubility (kinetic) stood at 35.7 µg/mL (≈ 108 µM). Take `CCNCc1cc([N+](=O)[O-])ccc1OCC.Cl`: the solubility (kinetic) is over 39.1 µg/mL. `COc1ccc(S(=O)(=O)N2CCOCC2)cc1NC(=O)CC(C)c1ccccc1` (stereo unspecified) registered a kinetic solubility of 9.9 µg/mL (≈ 23.7 µM). With `CCn1nc(C)c(/C=N/NC(=O)Cn2cncn2)c1C` the figure was over 41.3 µg/mL. `CC(=O)NO` yielded a kinetic solubility of under 0.2 µg/mL.

`COc1ccc(-c2cn(-c3ccc(C)c(Cl)c3)c(=S)[nH]2)cc1OC`: the kinetic solubility turned out to be 11.9 µg/mL (≈ 33 µM). `O=C(O)c1cccc(S(=O)(=O)Nc2ccc(N3CCCCC3)cc2)c1` displayed a solubility (kinetic) of over 54.1 µg/mL. `CC1c2ccsc2CCN1C(=O)NC(=O)c1ccc(Cl)cc1` (stereo unspecified) gave a kinetic solubility of 1.8 µg/mL (≈ 5.38 µM). With `O=C(Nc1ccc([N+](=O)[O-])cc1)Nc1cnccn1` the figure was 2.9 µg/mL (≈ 11.2 µM); with `Nc1nc2ccc(NC(=O)c3ccco3)cc2s1`, over 38.9 µg/mL; with `O=C(CC(Nc1ccccc1)c1ccccc1)C1CC1` (stereo unspecified), under 0.6 µg/mL. Turning to `CC(=O)Nc1cccc(OCCCNC(=O)c2cccc3ccccc23)c1`, the solubility (kinetic) was determined as 46.8 µg/mL (≈ 129 µM). `Cc1ccc(SCCSc2ncccn2)cc1` came in with a solubility (kinetic) of 1.7 µg/mL (≈ 6.48 µM). As to `O=C(c1ccc(Br)cc1)N1CCN(c2ncccn2)CC1`, the solubility (kinetic) worked out at 44.6 µg/mL (≈ 128 µM). `O=c1[nH]cnc2c1ncn2[C@@H]1O[C@H](CO)[C@@H](O)[C@H]1O` returned a kinetic solubility of over 40.2 µg/mL. `CC1CCc2sc(C(=O)NC(C)C3CCCO3)cc2C1` (stereo unspecified): the kinetic solubility is over 44 µg/mL. Molecule `O=C(COc1ccc(Cl)cc1[N+](=O)[O-])N1CCCCC1` displayed a solubility (kinetic) of over 44.8 µg/mL.

`CCCNC(=S)N1CCCC(c2nc3ccccc3[nH]2)C1` (stereo unspecified) showed a kinetic solubility of 13.4 µg/mL (≈ 44.3 µM).

On to `O=C(Cn1cnc2ccccc2c1=O)N1CCc2ccccc2C1`, for which the kinetic solubility was over 47.9 µg/mL. `Cc1nnc2c(N3CCN(CCO)CC3)nc3ccccc3n12`: the solubility (kinetic) is over 46.9 µg/mL. Molecule `O=C1CN(C(=O)COC(=O)[C@@H]2CC(O)CN2S(=O)(=O)c2ccc(Cl)cc2)c2ccccc2N1` (stereo partly specified) returned a kinetic solubility of over 74.1 µg/mL. With `CN(C)c1ccc(Nc2ccc([N+](=O)[O-])cn2)cc1` the figure was 1 µg/mL (≈ 3.87 µM); with `CC1CCCC(C)N1C(=O)COC(=O)c1cc(=O)[nH]c2ccccc12` (stereo unspecified), over 51.4 µg/mL; with `C=CCc1c(Cl)nc(C)nc1NCc1ccccc1`, 5.8 µg/mL (≈ 21.2 µM). As to `CN(C)CC(=O)N1CCc2ccccc2C1.O=C(O)C(=O)O`, the solubility (kinetic) is over 46.2 µg/mL. For the molecule `COc1ccc2nc(NC(=O)C3CC(=O)N(c4ccccc4)C3)sc2c1` (stereo unspecified), the solubility (kinetic) turned out to be 0.7 µg/mL (≈ 1.91 µM). The same measure for `CC1CCC(NC(=O)c2ccc(COc3ccccc3)o2)CC1` (stereo unspecified): 1.7 µg/mL (≈ 5.42 µM). With `Cc1ccc(O)c(CNc2nc3ccccc3[nH]2)c1` the figure was over 38 µg/mL; with `CCOC(=O)N1CCN(c2cc(NCCO)c([N+](=O)[O-])c3nonc23)CC1`, 5.9 µg/mL (≈ 15.5 µM); with `COc1ccc(C(=O)CNc2ccccc2Br)cc1`, 5.6 µg/mL (≈ 17.5 µM). For `Cc1ccc(C(=O)Nc2ccc(N3CCN(C)CC3)cc2)cc1`, the solubility (kinetic) is over 46.4 µg/mL. The same measure for `Cc1cc(C)cc(N2C(=O)CC(Sc3ccccc3C(=O)O)C2=O)c1` (stereo unspecified): 52.4 µg/mL (≈ 147 µM); for `COc1cccc(NC(=S)N(CCC(C)C)C(C)c2ccncc2)c1` (stereo unspecified): 44.4 µg/mL (≈ 124 µM); for `O=CN1CCN(S(=O)(=O)c2ccc(Cl)c(C(=O)O)c2)CC1`: over 49.9 µg/mL. Regarding `Cc1ccc(S(=O)(=O)NCC(=O)OCc2ccccc2)cc1`, the solubility (kinetic) came to 40.3 µg/mL (≈ 126 µM).

As for `S=C(NCc1ccccc1)N1CCc2ccccc2C1`, the kinetic solubility was found to be 5.6 µg/mL (≈ 19.8 µM). In turn, `CC1CCC/C(=C\Nc2ccc(C(=O)O)c(O)c2)C1=O` (stereo unspecified) had a solubility (kinetic) of 39.4 µg/mL (≈ 143 µM). For `COc1ccc(S(=O)(=O)N2CCOCC2)cc1NC(=O)C1CC1`, the kinetic solubility is over 51.1 µg/mL. In the case of `CC(=O)N1CCN(C(=O)c2cc3ccccc3o2)CC1`, the solubility (kinetic) is over 40.8 µg/mL.

`CCCC(=O)N=c1sc2c(OC)ccc(OC)c2n1C`: the kinetic solubility was under 0.3 µg/mL.
